{"source": "patent US11850266B2", "about": "“Cardiomyocytes and compositions and methods for producing the same” (President and Fellows of Harvard College, priority 2019, dated 2023)", "type_in_all_cases": "cell-based, human", "key": {"[1]": {"test_system": "iPSC-derived cardiomyocytes", "assay": "Spontaneous beating rate of cardiomyocytes", "procedure": "The BJRiPS cell line was used to generate preliminary data. BJRiPS cells were differentiated into cardiomyocytes according to previously published protocols (6). After the onset of beating (around day 10), cardiomyocytes were treated with vehicle (DMSO) or different concentrations of rapamycin, Torin1, or Torin2 for different time periods. Beating rate was counted manually. Some cells were harvested after 5-7 days of treatment for flow cytometry analysis. Other cells were harvested after 7 days of treatment for qPCR."}, "[2]": {"test_system": "mTORC1 (S6K) and mTORC2 (Akt)", "assay": "Western analysis of phosphorylation downstream of mTORC1 and mTORC2 in iPSC-derived cardiomyocytes", "protocol": "Beating cardiomyocytes were treated with Torin1 (200 nM, unless otherwise noted) or vehicle (0.02% dimethylsulfoxide (DMSO)) beginning at ˜2 days after onset of beating for 7 days (media changed with fresh Torin1 or DMSO every 2-3 days), unless otherwise noted. After Torin1 treatment, media was switched back to RPMI/B27/insulin and maintained with media change every 2-3 days until endpoint assay.\nCells were lysed with lysis buffer (1% Triton X, 0.35% Na-deoxycholate, 1 mM EDTA, 1% protease inhibitor cocktail (Sigma), 1% phosphatase inhibitor cocktail 2 (Sigma), 1% phosphatase inhibitor cocktail 3 (Sigma), 1 mM phenylmethylsulfonyl fluoride (PMSF)) and total protein was measured with the Pierce BCA Protein Assay Kit. Samples with equal total protein quantities (prepared in Laemmli Sample Buffer (Bio-Rad)) were loaded into a Mini-Protean TGX Precast Gel (Bio-Rad) and electrophoresed for 1 hour at 100 V before transfer to a PVDF membrane using the Trans-Blot Turbo Transfer System (Bio-Rad). The Precision Plus Protein Dual Color Standards molecular weight ladder was used to estimate molecular weight of detected bands (Bio-Rad). Membranes were blocked with 5% milk or bovine serum albumin then incubated with the primary antibody (Table 2) overnight at 4 degrees C. followed by incubation with the horseradish peroxidase-conjugated secondary antibody (Table 2) for 1 hour at room temperature. The Amersham ECL Western Blotting Detection kit was used to detect the protein signal by chemiluminescence, and band densities were quantified using ImageJ software (NIH)."}, "[3]": {"test_system": "iPSC-derived cardiomyocytes", "assay": "Seahorse Mito Stress Test and Glycolysis Stress Test", "procedure": "The Seahorse XFe96 Analyzer (Agilent) was used to assess metabolic activity of differentiated cardiomyocytes. Seahorse XFe96 cell culture microplates were coated with Geltrex (1:100 dilution in DMEM:F12). Cardiomyocytes were differentiated as described above then treated with DMSO or Torin1 (200 nM) starting at approximately two days after onset of beating for one week (˜days 9-16 of differentiation for most batches). After treatment, all cells were changed back into RPMI/B27/insulin media until assay preparation (performed at or before day 35 of differentiation). One day prior to assay, cardiomyocytes were dissociated with 0.1% trypsin-EDTA for 5 minutes then neutralized with RPMI/B27/insulin+10% fetal bovine serum (FBS) and plated at a density of 20,000-30,000 cells per well. Cardiomyocytes were maintained in serum-containing medium overnight to facilitate cell adhesion. One hour prior to the assay, the plates were changed to Seahorse assay media (XF Base Medium supplemented with 25 mM glucose, 1 mM sodium pyruvate, and 1 mM GlutaMAX), then incubated at 37 degrees C. in a CO2-free incubator with Seahorse assay media. […] Following measurement of the oxygen consumption rate (OCR) and extracellular acidification rate (ECAR) in response to serial injections of the stress test kit compounds, final cell density was determined using a CyQUANT assay (Thermo Fisher Scientific) to account for cell loss during washes. Cardiomyocytes not used for the Seahorse assay but at a similar day of differentiation were used to create a standard curve for the CyQUANT assay to quantify absolute cell number in order to account for cell loss during washing/mixing steps. OCR values were normalized to absolute cell number determined by the CyQUANT assay. […] Baseline OCR values were calculated by averaging the first three OCR measurements (0-12 minutes) prior to injection of compounds, maximal OCR values were calculated by subtracting the average non-mitochondrial OCR values (OCR following rotenone/[…]) from the OCR values after the injection with the uncoupler FCCP, and respiratory reserve capacity values were calculated by subtracting baseline OCR values from OCR values after addition of FCCP. For the Glycolysis Stress Test, the glycolysis ECAR was calculated by subtracting the average non-glycolytic acidification values (after 2-DG) from the values after glucose administration, the glycolytic capacity was calculated by subtracting the non-glycolytic acidification ECAR values from ECAR values after addition of oligomycin, and the glycolytic reserve was calculated by subtracting the ECAR values after addition of glucose from the ECAR values after addition of oligomycin, according to the manufacturer's instructions."}}}
{"smiles": "CCC(=O)N1CCN(c2ccc(-n3c(=O)ccc4cnc5ccc(-c6cnc7ccccc7c6)cc5c43)cc2C(F)(F)F)CC1", "note": "[Torin1]", "values": [{"measurement": "spontaneous rate of contraction", "setting": "[1]; Example 1, FIG. 4C", "value": "decrease"}, {"measurement": "beating rate of cardiomyocytes", "setting": "[1]; Torin1 10, 50, 200 nM, Torin2 200 nM, from day 11 for 4-5 days, FIG. 29", "value": "decreased the beating rate"}, {"measurement": "beating rates at 1 week", "setting": "[1]; dose-dependent, BJRiPS-CMs, FIG. 29", "value": "significantly decreased beating rates"}, {"measurement": "phosphorylation of AMP kinase (AMPK)", "setting": "[2]; Torin1 200 nM, 0-48 h, BJRiPS-CMs, FIG. 17B", "value": "increased phosphorylation of AMP kinase (AMPK)"}, {"measurement": "phosphorylation of S6K and Akt", "setting": "[2]; Torin1 200 nM, single treatment, 0-48 h, BJRiPS-CMs", "value": "acutely decreased phosphorylation of both S6K and Akt"}, {"measurement": "phosphorylation of ribosomal protein S6", "setting": "[2]; Torin1 10, 50, 200 nM at days 25-29 after lactate enrichment, FIG. 28", "value": "decreased phosphorylation of S6"}, {"measurement": "normalized maximal OCR", "setting": "[3]; Torin1 200 nM 7 days, BJRiPS-CMs, FIG. 3B", "value": "significant increase"}, {"measurement": "ECAR from non-glycolytic acidification", "setting": "[3]; Torin1 200 nM 7 days, FIG. 12C", "value": "decrease in ECAR from non-glycolytic acidification"}, {"measurement": "extracellular acidification rate (ECAR)", "setting": "[3]; Torin1 200 nM 7 days, FIGS. 12A-12B", "value": "trend toward decreased"}, {"measurement": "maximal OCR", "setting": "[3]; Torin1 7 days, Gibco iPSC-derived cardiomyocytes", "value": "significantly increases the maximal OCR"}]}
